Data from patent publication US8323695B2, “Method for stabilizing phenylephrine” (McNeil-PPC, Inc., priority 2007, dated 2012).
Counter-ions that a name gives are not always drawn.

Tests used:
[1] = Formation of phenylephrine-maleate adducts as a function of pH; assay type: physicochemical; details: combined with chlorpheniramine maleate
From the text: Phenylephrine may be unstable in the presence of active ingredients which are the soluble salts of maleic acid. Phenylephrine-Maleate adducts form when phenylephrine hydrochloride is combined with chlorpheniramine maleate in solution and in solid dosage forms. This is due to the presence of phenylephrine with maleic acid. It was discovered that a pH below 6.0 yields low levels of one type of phenylephrine-maleate adduct (degradant #1) and it was also discovered that a pH above 4.5 yields low levels of a second type of phenylephrine-maleate adduct (degradant #2).

[2] = Stability of phenylephrine in solid formulations after spray drying an acidic solution; assay type: physicochemical
From the text: Phenylephrine is known to experience physical and chemical degradation. Degradation of phenylephrine may be caused by a variety of factors including, but not limited to, the presence of oxygen, moisture, reducible sugars, bases, high temperatures, etc. […] Degradation of phenylephrine may be noticed by a change in color, e.g. changing from a whitish color to a darker, blackish color. Additionally, phenylephrine may degrade chemically as recorded by degradation peaks during analysis, such as an HPLC analysis. It is desirable to prevent, reduce or minimize the degradation of phenylephrine. An embodiment of the present invention provides a stable pharmaceutical composition having phenylephrine in a therapeutically effective amount wherein the phenylephrine has been spray dried. An additional embodiment of the present invention provides a stable composition of phenylephrine in a therapeutically effective amount wherein the phenylephrine has been layered or sprayed onto a substrate.

| Structure (SMILES) | levels of second type of phenylephrine-maleate adduct (degradant #2) ([1]; pH above 4.5) | levels of phenylephrine-maleate adduct (degradant #1) ([1]; pH below 6.0) | stability of phenylephrine in solid formulations [2] |
| --- | --- | --- | --- |
| CNC[C@H](O)c1cccc(O)c1 [phenylephrine hydrochloride] | low levels | low levels |  |
| CNC[C@H](O)c1cccc(O)c1 [phenylephrine] |  |  | increases the stability |
